Marks after values point to notes of the source that are not given here. Where a SMILES comes first, the peptide text is derived from it.
Columns and labels:
[1] = system: sluggish-granulating wounds after surgical treatment for cancer; assay: Clinical complex treatment of cancer patients with post-operative complications; assay type: in vivo
Description: In the pre-operation period, the patients underwent a radical-scheme, radiation therapy employing large fields of complex configuration on the linear electron accelerator (its power is 4,3 Mev) and gamma-therapy device “Rokus-M” in the brake mode. In particular cases, one of the components of the combined treatment was chemotherapy.
Beginning from the third day after the operation, 1 μkg of L-Lys-L-Glu dipeptide was injected intramuscularly daily during 10 days.

white outbred male mice = assay: Acute toxicity according to Kerber, single intramuscular administration; assay type: in vivo
Description: The study of the general toxic activity of dipeptide L-Lys-L-Glu was conducted in compliance with “The rules of pre-clinical estimation of safety of pharmacological Substances (GLP)”—
The purpose of the study consisted of the identification of tolerable toxic doses of the drug, estimation of stage and character of pathological alterations in various organs and systems of the organism and determination of correlation between toxic effect related to dose and duration of drug application.
The estimation of acute toxicity of dipeptide L-Lys-L-Glu was conducted according to Kerber. The study was carried out on 66 white outbred male mice with body weight 20-23 g, kept under standard regimen and fed with standard chow in the vivarium. The animals were divided at random into 6 equal groups of 11 mice each. The animals were exposed to single administration of the drug intramuscularly, 0.25 ml in doses 1 mg/kg, 2 mg/kg, 3 mg/kg, 4 mg/kg, 5 mg/kg, several thousand times exceeding therapeutic dose recommended for clinical trial. Control animals were administered sodium chloride solution in the same amount.

[2] = system: purulent incised crushed wounds of the femural soft tissues; assay: Healing of purulent incised crushed wounds of the soft tissues; assay type: in vivo, shinshilla rabbits; parameters: key: 1 point - absent; 2 points - single (traces); 3 points - few; 4 points - diffuse (moderately); 5 points - many-,; 6 points - very many; conditions: rabbits, 1 μkg i.m. daily 5 days
Description: The efficacy of L-Lys-L-Glu dipeptide was estimated on the model of purulent incised crushed wounds of the femural soft tissues in shinshilla rabbits of both sexes with body weight 2-3 kg. Therefore, the rabbits underwent shaving in the area of femural soft tissues with subsequent incision 5 cm long and 2 sm deep. Soft tissues (muscles, subcutaneous fat) were crushed with Kocher 's forcepts and infected with the pathogenic mixture Staphylococcus aureus, strain 186. Afterwards, the wound was sutured. In 72 hours the sutures were lifted; and the wound was treated with 3% solution of hydrogen peroxide.
The animals of experimental group were injected intramuscularly every day for five days with dipeptide L-Lys-L-Glu in a single dose 1 μkg per injection. Control rabbits were injected with sodium chloride solution according to the same scheme. In the process of treatment the wounds were treated with antiseptic remedies for external use.
The estimation of L-Lys-L-Glu dipeptide efficacy in the dynamics of the inflammatory process regression was based on the terms of crust rejection and wound clearance from the pyo-necrotic mass, and appearance of the granular tissue in the wound and beginning of edge epithelization. […] The activity of tissue enzymes was also estimated (5,6,7).

rats = assay: Chronic toxicity, daily intramuscular administration for 6 months; assay type: in vivo; conditions: i.m. daily 0.3, 1, 3 mg/kg for 6 months
Description: Chronic toxicity of L-Lys-L-Glu dipeptide obtained by the claimed method was studied during its longitudinal administration to rats with body weight […]. The animals of experimental groups were exposed daily to single intramuscular administration of the substance in doses 1 mg/kg, 0.3 mg/kg, 3 mg/kg in 0.5 ml of sodium chloride solution for 6 months. There was analyzed animal behavior, as well as chow and water consumption, condition of hairy and of mucous surfaces. The animals were weighed daily during the first 3 months of the experiment and then once a month. In 3 months after the onset of administration and upon completion of the experiment hematological and biochemical examinations functions of cardiovascular system, liver, pancreas. kidney, and adrenal gland were conducted and estimated. Upon the termination of the drug administration some animals were exposed to pathomorphological examination with the purpose of studying the state of various departments of the brain and spinal marrow, heart, aorta, lungs, liver, organs of endocrine and immune systems.

regenerating liver cells = assay: Compensatory regeneration of the liver after partial hepatectomy; assay type: in vivo, white outbred male rats
Description: The research has been conducted on 26 white outbred male rats weighing 150-200 grams. The animals were divided into thee following groups:
3 group—rats which had undergone the operation and were subsequently (2 and 24 hours after the operation) administered two subcutaneous injections of L-Lys-L-Glu dipeptide (0,1 μkg per rat).
At the same time, the animals of the first and second groups were made injections of the same volume of the […]. The extracted liver was preserved formalin.
The rats, which had been operated on, were killed by means of ether 32 and 96 hours after the operation. The rats from the control group were killed too, simultaneously. Their livers were preserved in formalin. After staining the preparations with hematoxilin-eosin, the mitotic index in the liver cells was defined, as well as the quantity of polyploid cells in the S-phase cell cycle (the quantity of dividing cells).

white outbred mice = assay: Sub-acute toxicity, daily intramuscular administration for 90 days; assay type: in vivo; conditions: i.m. daily 0.3, 1, 3 mg/kg for 90 days; doses exceeding therapeutic 100-1000 times
Description: The study of sub-acute toxicity of L-Lys-L-Glu dipeptide is carried out on 60 white outbred mice with body weight […]. The animals of experimental groups were exposed daily to a single administration of the drug intramuscularly for 90 days in doses 1 mg/kg, 0.3 mg/kg, 3 mg/kg in 0.5 ml of sodium chloride solution. The animals of control groups were administered with sodium chloride solution in the same quantity.
During the whole period of Investigation the animals were under daily control. There was monitored animal behavior, as well as chow and water consumption, condition of hairy and mucous surfaces. The animals were weighed weekly. Morphological composition and properties of peripheral blood were studied prior to and an the 30th, 60th, and 90th day of drug administration. Biochemical and coagulologic indices of the blood were studied upon experiment completion.

[3] = 32 hours After partial hepatectomy, 0,1 μkg per rat s.c. at 2 and 24 hours
[4] = 32 hours group, Before (pre-operation index)
[5] = 96 hours After partial hepatectomy, 0,1 μkg per rat s.c. at 2 and 24 hours
[6] = 96 hours group, Before (pre-operation index)

Which results are given for `NCCCC[C@H](N)C(=O)N[C@@H](CCC(=O)O)C(=O)O` [L-Lys-L-Glu dipeptide, L-lysil-L-glutamic acid] (H-Lys-Glu-OH)?
edema and pain in the wound area ([1]; 1 μkg i.m. daily during 10 days from third day after operation): helped to reduce edema and pain in the wound area; time of treatment ([1]; complex treatment): reduces the time of their treatment; toxic effects (white outbred male mice; doses several thousand times exceeding the therapeutic): does not induce any toxic effects; changes in general state, behavior, locomotor activity, integument, physiological discharges (white outbred male mice; mice, single i.m. 1-5 mg/kg, 72 hours and 14 days): No changes in the general state, behavior, locomotor activity, hairy or skin integument or physiological discharges; animal deaths (white outbred male mice; mice, single i.m. 1-5 mg/kg, in 72 hours and in 14 days): none of the animals in either of the groups died; Alcaline phosphotase in leukocytes ([2]; day 6): 6*; Alcaline phosphotase in vessels ([2]; day 6): 6*; Acid phosphotase in histiocytes ([2]; day 14): 6*; Alcaline phosphotase in leukocytes ([2]; day 14): 6*; Alcaline phosphotase in leukocytes ([2]; day 28): 6; Alcaline phosphotase in vessels ([2]; day 28): 4; Alcaline phosphotase in vessels ([2]; day 40): 4*; side effects, chronic toxicity (rats; doses exceeding therapeutic 100-1000 times): absence of side effects; pathological changes (general state, blood indices, intrinsic organs, cardio-vascular, respiratory, liver and kidney functions) (rats; rats): no pathological changes; % of cells in the phase of DNA synthesis (regenerating liver cells; [3]): 3.882 ± 0.8391″ %; Mitotic index (regenerating liver cells; [3]): 2.314 ± 0.4611 %; Total number of dividing cells (regenerating liver cells; [3]): 6.196 ± 1.279 %; increasing number of mitoses, DNA-synthesizing cells and overall amount of dividing cells (regenerating liver cells; 32 hours after partial hepatectomy): does become trustworthy; % of cells in the phase of DNA synthesis (regenerating liver cells; [4]): 0.870 ± 0.100%; Total number of dividing cells (regenerating liver cells; [4]): 1.320 ± 0.159%; Mitotic index (regenerating liver cells; 32 hours group, Before (pre-operation index), % of the total number of liver cells): 0.450 ± 0.067%; % of cells in the phase of DNA synthesis (regenerating liver cells; [5]): 4.664 ± 1.315 %; Mitotic index (regenerating liver cells; [5]): 4.846 ± 0.334*& %; Total number of dividing cells (regenerating liver cells; [5]): 9.510 ± 1.609 %; number of cells in the S-phase compared to the second (control) group (regenerating liver cells; 96 hours after hepatectomy): did not differ reliably; number of dividing cells bigger than with rats injected with the sodium hydrochloride (regenerating liver cells; 96 hours after hepatectomy): 75%; number of mitoses compared to rats injected with the sodium hydrochloride (regenerating liver cells; 96 hours after hepatectomy): twice as big; % of cells in the phase of DNA synthesis (regenerating liver cells; [6]): 0.982 ± 0.141%; Mitotic index (regenerating liver cells; [6]): 0.294 ± 0.084%; side effects, sub-acute toxicity (white outbred mice): absence of side effects

Source: patent US6642201B1, “Use of a dipeptide for stimulating repair processes” (priority 1998, dated 2003)
